# Results published in paper PMC8296573, “Synthesis and Biological Evaluation of Fingolimod Derivatives as Antibacterial Agents” (ACS Omega, 2021).
# How the values were obtained:
# [1] = test system: C. violaceum CV026 (AHL-deficient mutant); assay: Quorum sensing inhibition assay (violacein) with parallel resazurin viability; type: cell-based, Chromobacterium violaceum; conditions: mutant strain
# Experimental: (§1) The QS inhibitory activity of the compounds was assessed as described previously.[31],[47] Briefly, two QS reporter strains, C. violaceum ATCC 31532 and the violacein-negative, mini-Tn5 mutant of C. violaceum CV026 (NCTC 13278), were grown on LBA (for CV026, the agar was supplemented with kanamycin at 100 μg mL^–1) overnight at 27 °C. Colonies were suspended in PDYT (0.5% peptone, 0.3% D-glucose, 0.25% yeast extract, 0.05% L-tryptophan, w/v) to reach an OD600 of 0.02. The CV026 culture was supplemented with C6-HSL (N-hexanoyl-L-homoserine lactone) (10007896, Cayman Chemical, MI) at 0.5 μM to induce the QS-moderated synthesis of violacein. For each strain, 200 μL of bacterial culture was added per well in two identical 96-well plates containing the compounds (2 μL per well for a final DMSO concentration of 1%). In each 96-well plate, untreated cells were used as negative controls and quercetin (Q4951, Sigma-Aldrich) and azithromycin (PZ0007, Sigma-Aldrich) were included as positive controls for QS inhibition and cell viability (bactericidal activity), respectively. The plates were incubated at 27 °C under aerobic conditions (200 rpm) for 22 h.
# (§2) The synthesized and nonsoluble violacein was collected from the first 96-well plate by centrifugation (4000 rpm, for 15 min, 20 °C), and the supernatants were removed. Violacein was dissolved in 100 μL per well of 96% (v/v) ethanol and was separated from cells by centrifugation as described above. The supernatant containing violacein was then transferred to a new 96-well plate, and the absorbance was measured at 595 nm using a Multiskan Sky Microplate spectrophotometer. To detect any bactericidal effects, the viability of the cells was measured in the second replica plate by adding 10 μL of 400 μM resazurin in each well and incubating the plate for 30 min in the dark at 27 °C (220 rpm). After centrifugation of the plate to separate the cells from the solution, 100 μL of each well were transferred into a new 96-well plate and the fluorescence was recorded as described above using the Varioskan LUX multimode plate reader.
# [2] = test system: C. violaceum ATCC 31532 (wild type); assay: as above; type: cell-based, Chromobacterium violaceum; conditions: wild-type strain
# Experimental: as §1, §2
# HEp-2 = assay: Cytotoxicity, resazurin staining assay; type: cell-based, human; conditions: 24 h incubation
# In short: (§3)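 A549 and HEp-2 cells (1 × 10^4/well) attached for 24 h before compound addition; HL-60 seeded directly with compounds; 0.25% DMSO final, 24 h exposure. Adherent cells then washed and given 20 μM resazurin for 2 h; HL-60 received resazurin directly for 4 h; fluorescence read-out, 1% Triton X-100 as positive control.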
# HL-60 = assay: Cytotoxicity, resazurin staining assay; type: cell-based, human; conditions: 24 h incubation
# In short: as §3
# A549 = assay: Cytotoxicity, resazurin staining assay; type: cell-based, human; conditions: 24 h incubation
# In short: as §3
# Solubility in DMSO = type: physicochemical
# S. aureus ATCC 25923 [3] = test system: S. aureus ATCC 25923; parameters: method as in PMID 33233348; conditions: previously found; cited from earlier work
# S. aureus ATCC 25923 [4] = assay: S. aureus attachment on LDPE tubes, alone or in coculture with differentiated HL-60 cells; type: cell-based, Staphylococcus aureus; conditions: 25 μM, 24 h
# Experimental: The coculture system was as previously described.[40] Briefly, the bacteria were prepared as described above and the concentration was adjusted to 2 × 10^7 CFU mL^–1 in RPMI 1640. The media of the differentiated HL-60 cells was refreshed with RPMI 1640 24 h before the experiments to remove possible traces of antibiotics. On the day of the experiment, the cells were counted and adjusted to a concentration of 2 × 10^5 cells mL^–1 in RPMI 1640. Each suspension (bacterial and differentiated HL-60 cells, 500 μL of each) was added on 1-cm-long sections of a sterilized fine bore LDPE tubing (Smiths Medical ASD, Minneapolis, MN) in 24-well plates (Nunclon Δ surface, Nunc, Roskilde, Denmark). Fingolimod was also added to the wells at a concentration of 25 μM (0.25% DMSO). Coculture controls with no added compound were included, as well as bacterial controls without differentiated HL-60 cells with and without fingolimod. The plates were incubated for 24 h in the same conditions as for cell maintenance. Then, the LDPE tubes were gently washed with TSB to remove adhering planktonic cells and transferred to Eppendorf tubes containing 1 mL of 0.5% (w/v) Tween 20-TSB solution. Next, the tubes were sonicated in a water bath sonicator (Branson Ultrasonics, Danbury, CT) for 5 min at 35 kHz. The tubes were vortexed for 20 s prior to and after the sonication step. […]
# A. baumannii NCTC 13423 = test system: A. baumannii NCTC 13423; parameters: method as in PMID 33233348; conditions: previously reported; cited from earlier work
compound,measurement,setting,value
"CCCCCCCCc1ccc2ccc(CC(N)(CO)CO)nc2c1 [Compound 82, 2-Amino-2-[(7-octylquinolin-2-yl)methyl]propane-1,3-diol]",QSI activity compared with fingolimod,[1],significantly better QSI activity
"CCCCCCCCCCc1ccc(CCC(N)(CO)CO)nc1 [Compound 62, 2-Amino-2-[2-(5-decylpyridin-2-yl)ethyl]propane-1,3-diol]",QSI activity compared with fingolimod,[2],significantly worse than fingolimod
"2-Amino-2-(4-decylbenzyl)propane-1,3-diol [Compound 45]",CC50,HEp-2,> 40 µM
same,CC50,HL-60,3.2 ± 1 µM
same,CC50,A549,27.4 ± 15.1 µM
"CCCCCCCCc1ccc(CCC(N)(CO)CO)cc1 [fingolimod, Fingolimod]",Solubility in dimethyl sulfoxide (DMSO),Solubility in DMSO,not fully soluble
same,"MIC in pre-exposure, S. aureus",S. aureus ATCC 25923 [3],15 µM
same,Bacterial attachment on LDPE tubes,"S. aureus ATCC 25923 [4]; in combination with HL-60 cells, vs coculture control (p = 0.042)",significant reduction
same,Numbers of attached viable S. aureus on LDPE tubes,"S. aureus ATCC 25923 [4]; in the absence of HL-60 cells, vs monoculture control (p = 0.013)",significantly reduced
same,MIC A. baumannii,A. baumannii NCTC 13423,25 µM
"CCCCCCCCCCc1ccc2nc(CCC(N)(CO)CO)ccc2c1 [Compound 81, 2-Amino-2-[2-(6-decylquinolin-2-yl)ethyl]propane-1,3-diol]",Solubility in dimethyl sulfoxide (DMSO),Solubility in DMSO,not fully soluble
"CCCCCCCCc1ccc2cc(CC(N)(CO)CO)ccc2c1 [Compound 79, 2-Amino-2-[(6-octylnaphthalen-2-yl)methyl]propane-1,3-diol]",QSI activity compared with fingolimod,[2],significantly lower QSI activity than fingolimod
same,QSI activity compared with fingolimod,[1],significantly lower QSI activity than fingolimod
